Measured values taken from PubChem BioAssay AID2060510 (Molecular Pharmacology Branch, DTP, NCI, 2025).
Blank lines part the entries; values can stand above or below the compound they belong to.

Tested on: 439559-082-T-J2-PDC spheroids viability
Test: Anticancer human tumor 439559-082-T-J2-PDC patient-derived colon adenocarcinoma cell line growth inhibition [GQUAD]
Details: for IC50: curve of first compound; for viability, T/C: stronger effect = lower value
Method in brief: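 Tumor cells were grown as complex spheroids with HUVEC endothelial cells and mesenchymal stem cells as stroma. G-quadruplex stabilizers were combined with targeted agents over half-log dilutions from near the clinical Cmax, or from 10 microM.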

[1] = second compound 0.0316 µM, first compound 0.0316 µM
[2] = second compound 0.0316 µM, first compound 0.1 µM
[3] = second compound 0.0316 µM, first compound 0.316 µM
[4] = second compound 0.0316 µM, first compound 1 µM
[5] = second compound 0.0316 µM, first compound 3.16 µM
[6] = second compound 0.0316 µM, first compound 10 µM
[7] = second compound 0.1 µM, first compound 0.0316 µM
[8] = second compound 0.1 µM, first compound 0.1 µM
[9] = second compound 0.1 µM, first compound 0.316 µM
[10] = second compound 0.1 µM, first compound 1 µM
[11] = second compound 0.1 µM, first compound 3.16 µM
[12] = second compound 0.1 µM, first compound 10 µM
[13] = second compound 0.316 µM, first compound 0.0316 µM
[14] = second compound 0.316 µM, first compound 0.1 µM
[15] = second compound 0.316 µM, first compound 0.316 µM
[16] = second compound 0.316 µM, first compound 1 µM
[17] = second compound 0.316 µM, first compound 3.16 µM
[18] = second compound 0.316 µM, first compound 10 µM
[19] = second compound 1 µM, first compound 0.0316 µM
[20] = second compound 1 µM, first compound 0.1 µM
[21] = second compound 1 µM, first compound 0.316 µM
[22] = second compound 1 µM, first compound 1 µM
[23] = second compound 1 µM, first compound 3.16 µM
[24] = second compound 1 µM, first compound 10 µM
[25] = second compound 3.16 µM, first compound 0.0316 µM
[26] = second compound 3.16 µM, first compound 0.1 µM
[27] = second compound 3.16 µM, first compound 0.316 µM
[28] = second compound 3.16 µM, first compound 1 µM
[29] = second compound 3.16 µM, first compound 3.16 µM
[30] = second compound 3.16 µM, first compound 10 µM
[31] = second compound 10 µM, first compound 0.0316 µM
[32] = second compound 10 µM, first compound 0.1 µM
[33] = second compound 10 µM, first compound 0.316 µM
[34] = second compound 10 µM, first compound 1 µM
[35] = second compound 10 µM, first compound 3.16 µM
[36] = second compound 10 µM, first compound 10 µM
[37] = second compound 0.0316 µM, first compound 0.000999 µM
[38] = second compound 0.0316 µM, first compound 0.00316 µM
[39] = second compound 0.0316 µM, first compound 0.00999 µM
[40] = second compound 0.0316 µM, first compound 0.0999 µM
[41] = second compound 0.1 µM, first compound 0.000999 µM
[42] = second compound 0.1 µM, first compound 0.00316 µM
[43] = second compound 0.1 µM, first compound 0.00999 µM
[44] = second compound 0.1 µM, first compound 0.0999 µM
[45] = second compound 0.316 µM, first compound 0.000999 µM
[46] = second compound 0.316 µM, first compound 0.00316 µM
[47] = second compound 0.316 µM, first compound 0.00999 µM
[48] = second compound 0.316 µM, first compound 0.0999 µM
[49] = second compound 1 µM, first compound 0.000999 µM
[50] = second compound 1 µM, first compound 0.00316 µM
[51] = second compound 1 µM, first compound 0.00999 µM
[52] = second compound 1 µM, first compound 0.0999 µM
[53] = second compound 3.16 µM, first compound 0.000999 µM
[54] = second compound 3.16 µM, first compound 0.00316 µM
[55] = second compound 3.16 µM, first compound 0.00999 µM
[56] = second compound 3.16 µM, first compound 0.0999 µM
[57] = second compound 10 µM, first compound 0.000999 µM
[58] = second compound 10 µM, first compound 0.00316 µM
[59] = second compound 10 µM, first compound 0.00999 µM
[60] = second compound 10 µM, first compound 0.0999 µM
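Also: spheroids exposed to the agents for 7 days before readout.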
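For viability, T/C in this document: percent of luminescence signal in DMSO vehicle wells taken as 100% viability.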

IC50 (second compound 0.0316 µM): > 10 µM
IC50 (second compound 0.1 µM): > 10 µM
IC50 (second compound 0.316 µM): > 10 µM
IC50 (second compound 1 µM): > 10 µM
IC50 (second compound 3.16 µM): > 10 µM
IC50 (second compound 10 µM): > 10 µM
SMILES: O=c1[nH]cc(F)c(=O)[nH]1 + Cc1cnc(CNC(=O)c2c(=O)c3ccc(N4CCCN(C)CC4)nc3n3c2sc2ccccc23)cn1
viability, T/C [1]: 100%
viability, T/C [2]: 102%
viability, T/C [3]: 87.2%
viability, T/C [4]: 74.5%
viability, T/C [5]: 67%
viability, T/C [6]: 63.6%
viability, T/C [7]: 91.9%
viability, T/C [8]: 96.4%
viability, T/C [9]: 81.2%
viability, T/C [10]: 72.9%
viability, T/C [11]: 68.7%
viability, T/C [12]: 67.4%
viability, T/C [13]: 88.2%
viability, T/C [14]: 90%
viability, T/C [15]: 73.7%
viability, T/C [16]: 63.5%
viability, T/C [17]: 66.7%
viability, T/C [18]: 66%
viability, T/C [19]: 88.9%
viability, T/C [20]: 73.6%
viability, T/C [21]: 62.7%
viability, T/C [22]: 59.9%
viability, T/C [23]: 66.4%
viability, T/C [24]: 65.2%
viability, T/C [25]: 62.5%
viability, T/C [26]: 68.3%
viability, T/C [27]: 63%
viability, T/C [28]: 58.4%
viability, T/C [29]: 59.9%
viability, T/C [30]: 52.7%
viability, T/C [31]: 68.7%
viability, T/C [32]: 66.3%
viability, T/C [33]: 67.8%
viability, T/C [34]: 57.8%
viability, T/C [35]: 57.7%
viability, T/C [36]: 58.3%

SMILES: Cn1ncnc1[C@H]1c2n[nH]c(=O)c3cc(F)cc(c23)N[C@@H]1c1ccc(F)cc1 + Cc1[nH]c2ccc(F)cc2c1-c1nc2c3cccnc3c3ncccc3c2[nH]1
IC50 (second compound 0.0316 µM): > 0.316 µM
IC50 (second compound 0.1 µM): > 0.316 µM
IC50 (second compound 0.316 µM): > 0.316 µM
IC50 (second compound 1 µM): > 0.316 µM
IC50 (second compound 3.16 µM): > 0.316 µM
IC50 (second compound 10 µM): > 0.316 µM
viability, T/C [37]: 105%
viability, T/C [38]: 93.7%
viability, T/C [39]: 97.2%
viability, T/C [1]: 89.4%
viability, T/C [40]: 90.4%
viability, T/C [3]: 92.1%
viability, T/C [41]: 103%
viability, T/C [42]: 105%
viability, T/C [43]: 93.6%
viability, T/C [7]: 93.5%
viability, T/C [44]: 90%
viability, T/C [9]: 88.9%
viability, T/C [45]: 113%
viability, T/C [46]: 99%
viability, T/C [47]: 99.6%
viability, T/C [13]: 93.4%
viability, T/C [48]: 97.2%
viability, T/C [15]: 85.8%
viability, T/C [49]: 87.3%
viability, T/C [50]: 98.5%
viability, T/C [51]: 92%
viability, T/C [19]: 94.1%
viability, T/C [52]: 99.2%
viability, T/C [21]: 84%
viability, T/C [53]: 79.6%
viability, T/C [54]: 87.5%
viability, T/C [55]: 77.3%
viability, T/C [25]: 85.7%
viability, T/C [56]: 81.8%
viability, T/C [27]: 76.2%
viability, T/C [57]: 85.7%
viability, T/C [58]: 86.7%
viability, T/C [59]: 72.3%
viability, T/C [31]: 85.8%
viability, T/C [60]: 82%
viability, T/C [33]: 61.8%

SMILES: CC[C@@]1(O)C(=O)OCc2c1cc1n(c2=O)Cc2cc3c(CN(C)C)c(O)ccc3nc2-1 + Cc1[nH]c2ccc(F)cc2c1-c1nc2c3cccnc3c3ncccc3c2[nH]1
IC50 (second compound 0.0316 µM): > 0.316 µM
IC50 (second compound 0.1 µM): > 0.316 µM
IC50 (second compound 0.316 µM): > 0.316 µM
IC50 (second compound 1 µM): > 0.316 µM
IC50 (second compound 3.16 µM): > 0.316 µM
IC50 (second compound 10 µM): > 0.316 µM
viability, T/C [37]: 99.4%
viability, T/C [38]: 109%
viability, T/C [39]: 94.5%
viability, T/C [1]: 99.7%
viability, T/C [40]: 96.3%
viability, T/C [3]: 82.4%
viability, T/C [41]: 101%
viability, T/C [42]: 102%
viability, T/C [43]: 99.5%
viability, T/C [7]: 96.2%
viability, T/C [44]: 103%
viability, T/C [9]: 83%
viability, T/C [45]: 98.1%
viability, T/C [46]: 92.1%
viability, T/C [47]: 89.1%
viability, T/C [13]: 99.2%
viability, T/C [48]: 90.5%
viability, T/C [15]: 83.3%
viability, T/C [49]: 94%
viability, T/C [50]: 101%
viability, T/C [51]: 98.6%
viability, T/C [19]: 84.9%
viability, T/C [52]: 93.3%
viability, T/C [21]: 83.6%
viability, T/C [53]: 81.8%
viability, T/C [54]: 81.2%
viability, T/C [55]: 88.9%
viability, T/C [25]: 78.2%
viability, T/C [56]: 86.2%
viability, T/C [27]: 73.5%
viability, T/C [57]: 86.4%
viability, T/C [58]: 78.7%
viability, T/C [59]: 75.3%
viability, T/C [31]: 76%
viability, T/C [60]: 90.1%
viability, T/C [33]: 56.9%

SMILES: COc1ncnc(C2CC2)c1-c1ncc2cnn(Cc3ccc(-c4nc(C(F)(F)F)cn4C(C)C)cc3)c2n1 + CN(C)c1ccc(Nc2c3ccc(NC(=O)CCN4CCCC4)cc3nc3cc(NC(=O)CCN4CCCC4)ccc23)cc1
IC50 (second compound 0.0316 µM): > 10 µM
IC50 (second compound 0.1 µM): > 10 µM
IC50 (second compound 0.316 µM): > 10 µM
IC50 (second compound 1 µM): > 10 µM
IC50 (second compound 3.16 µM): > 10 µM
IC50 (second compound 10 µM): > 10 µM
viability, T/C [1]: 93.2%
viability, T/C [2]: 106%
viability, T/C [3]: 90.6%
viability, T/C [4]: 89.5%
viability, T/C [5]: 103%
viability, T/C [6]: 98.5%
viability, T/C [7]: 98.7%
viability, T/C [8]: 93.5%
viability, T/C [9]: 97.5%
viability, T/C [10]: 99.1%
viability, T/C [11]: 94.8%
viability, T/C [12]: 96.6%
viability, T/C [13]: 91.6%
viability, T/C [14]: 96.1%
viability, T/C [15]: 82.7%
viability, T/C [16]: 97.7%
viability, T/C [17]: 96.8%
viability, T/C [18]: 102%
viability, T/C [19]: 98.8%
viability, T/C [20]: 96.3%
viability, T/C [21]: 98.4%
viability, T/C [22]: 87.9%
viability, T/C [23]: 104%
viability, T/C [24]: 92.7%
viability, T/C [25]: 90.4%
viability, T/C [26]: 98.4%
viability, T/C [27]: 91.6%
viability, T/C [28]: 93.5%
viability, T/C [29]: 96%
viability, T/C [30]: 99%
viability, T/C [31]: 89.3%
viability, T/C [32]: 86.2%
viability, T/C [33]: 90.6%
viability, T/C [34]: 96.6%
viability, T/C [35]: 105%
viability, T/C [36]: 92.6%
